Test results from patent US10351519B2, “Sulfamate derivative compounds, processes for preparing them and their uses” (BIO-PHARM SOLUTIONS CO., LTD., priority 2016, dated 2019).

Columns and labels:
ICR mice [1] = test: Anti-epilepsy activity, MES test, mouse; type: in vivo
Experimental: In the MES test (Ref., G. Villetti et al. Neuropharmacology 40 (2001) 866-878), an electrical stimulus (mice: 50 mA, 60 Hz, 0.2 sec, and rats: 150 mA, 60 Hz, 0.2 sec in the test animal) supplied by an 11A Shocker (IITC Life Science Company) was delivered through corneal electrodes. All mice or rats assigned to any electroshock at peak time were treated with each test compound sample which was dissolved in 30% PEG 400 or 20% tween 80 prepared by saline solvent applied orally before the test. […] Three doses of the test sample were administered orally to 9-18 animals (3-6 mice per dose) for evaluating the respective doses at which 50% of the animals were protected from seizure (ED50). The ED50 value (median effective dose) was calculated by Litchfield and Wicoxon log-probit method which is a dose-response relationship. Experimental animals, male ICR mice and male SD rats, were purchased from OrientBio, Samtako, or Nara Biotech, Korea, and housed in cages (4-5 mice or 3 rats per cage) for 4-5 days. The range of mice body weight was between 19 and 25 grams and range of rats body weight was between 100 and 130 grams.

ICR mice [2] = test: Chemical induced seizure model (PIC, picrotoxin); type: in vivo
Experimental: Picrotoxin (PIC) were used to induce the behavioral seizures in the experiments. Male ICR mice (purchased from Orient Bio Inc. Korea) of body weight 19-26 g (mice) were used for these studies. The test materials were administered intraperitoneal (ip) route in a volume of 10 ul/g (mice) weight in mice, respectively. Pharmacological effects of the test materials were evaluated to compared test groups (n=6) with a control group (n=6). Control group was administrated vehicle, only. The peak time was determined by administration of test material's random dose for 0.5, 1, 2, 4 hour. The time that the most protect was defined as a peak time and ED50 was determined by other dose administration at the peak time. Chemical (PIC) was dissolved in 0.9% saline and administered subcutaneously (s.c.) at its CD97 (convulsive dose 97%), the dose of Chemical (PIC) that produced clonic seizures in 97% into a loose fold of skin in the midline of the neck in a volume of 10 ul/g (mice) body weight. The animals were then transferred to observation cages and observed continuously for 45 min (PIC). Clonic seizure was elicited in approximately 97% of control group. Protection was defined as a complete absence of clonic seizure over the 45-min observation period. The effective dose of compound necessary to protect against generalized convulsive seizures to 50% of controls (i.e. ED50) was determined by log probit analysis using SPSS software program (SPSS Inc.). (Reference; White H. S., J. H. Woodhead, K. S. Wilcox, J. P. Stables, H. J. Kupferberg, and H. H. Wolf. General Principles; Discovery and Preclinical De-velopment of Antiepileptic Drugs. In: R. H. Levy, R. H. Mattson, B. S. Meldrum, and E. Perucca, eds. Antiepileptic Drugs, 5th Ed. Lippincott Williams & Wilkins, Philadelphia 2002: pp. 36-48.) The obtained results are shown in following Table 10.

## C[C@@H](OS(N)(=O)=O)[C@H](OS(N)(=O)=O)c1ccccc1Cl [Example 85]
ICR mice [1]
  MES test (po) Peak time: 2 h
ICR mice [1]; po, 100 mg/kg, read-out: MES test (po) efficacy %
  responders at 100 mg/kg: 16.6%
ICR mice [2]
  PIC(ip) Peak Time: 4 h
ICR mice [2]; 30 mg/kg
  PIC(ip) efficacy %: 30(33.3%)
